Test results reported in the supplement of paper PMC10307832.

Experiments:
Experiment in all cases: relative viability (nuclei count vs DMSO), 5 days (fraction); higher = more cells survive
KN-93 + Navitoclax = compound: CN(C/C=C/C1=CC=C(C=C1)Cl)CC2=CC=CC=C2N(CCO)S(=O)(=O)C3=CC=C(C=C3)OC [KN-93] + CC1(C)CCC(c2ccc(Cl)cc2)=C(CN2CCN(c3ccc(C(=O)NS(=O)(=O)c4ccc(N[C@H](CCN5CCOCC5)CSc5ccccc5)c(S(=O)(=O)C(F)(F)F)c4)cc3)CC2)C1 [Navitoclax] (partner 0.5 µM)
Method in brief: (§1)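 Dosing by pin tool came one day after lung cancer cell lines were seeded in 1536-well plates, using either one drug or a fixed anchor-drug dose plus five library-drug doses (not always all listed) in √10 steps. After 5 days, nuclei were counted on 4× images. Relative viability is treated-well nuclei count divided by vehicle-well nuclei count, and values are medians of duplicate plates.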

KN-93 + Trametinib = compound: CN(C/C=C/C1=CC=C(C=C1)Cl)CC2=CC=CC=C2N(CCO)S(=O)(=O)C3=CC=C(C=C3)OC [KN-93] + CC(=O)Nc1cccc(-n2c(=O)n(C3CC3)c(=O)c3c(Nc4ccc(I)cc4F)n(C)c(=O)c(C)c32)c1 [Trametinib] (partner 0.02 µM)
Method in brief: as §1

KN-93 + Dasatinib = compound: CN(C/C=C/C1=CC=C(C=C1)Cl)CC2=CC=CC=C2N(CCO)S(=O)(=O)C3=CC=C(C=C3)OC [KN-93] + Cc1nc(Nc2ncc(C(=O)Nc3c(C)cccc3Cl)s2)cc(N2CCN(CCO)CC2)n1 [Dasatinib] (partner 0.075 µM)
Method in brief: as §1

KN-93 + Foretinib = compound: CN(C/C=C/C1=CC=C(C=C1)Cl)CC2=CC=CC=C2N(CCO)S(=O)(=O)C3=CC=C(C=C3)OC [KN-93] + COc1cc2c(Oc3ccc(NC(=O)C4(C(=O)Nc5ccc(F)cc5)CC4)cc3F)ccnc2cc1OCCCN1CCOCC1 [Foretinib] (partner 0.25 µM)
Method in brief: as §1

KN-93 + Lapatinib = compound: CN(C/C=C/C1=CC=C(C=C1)Cl)CC2=CC=CC=C2N(CCO)S(=O)(=O)C3=CC=C(C=C3)OC [KN-93] + CS(=O)(=O)CCNCc1ccc(-c2ccc3ncnc(Nc4ccc(OCc5cccc(F)c5)c(Cl)c4)c3c2)o1 [Lapatinib] (partner 2 µM)
Method in brief: as §1

Cell Line	relative viability (KN-93 + Navitoclax; first compound 0.08 µM)	relative viability (KN-93 + Navitoclax; first compound 0.253 µM)	relative viability (KN-93 + Navitoclax; first compound 2.53 µM)	relative viability (KN-93 + Navitoclax; first compound 8 µM)	relative viability (KN-93 + Trametinib; first compound 0.08 µM)	relative viability (KN-93 + Trametinib; first compound 0.253 µM)	relative viability (KN-93 + Trametinib; first compound 2.53 µM)	relative viability (KN-93 + Trametinib; first compound 8 µM)	relative viability (KN-93 + Dasatinib; first compound 0.08 µM)	relative viability (KN-93 + Dasatinib; first compound 0.253 µM)	relative viability (KN-93 + Dasatinib; first compound 2.53 µM)	relative viability (KN-93 + Dasatinib; first compound 8 µM)	relative viability (KN-93 + Foretinib; first compound 0.08 µM)	relative viability (KN-93 + Foretinib; first compound 0.253 µM)	relative viability (KN-93 + Foretinib; first compound 2.53 µM)	relative viability (KN-93 + Foretinib; first compound 8 µM)	relative viability (KN-93 + Lapatinib; first compound 0.08 µM)	relative viability (KN-93 + Lapatinib; first compound 0.253 µM)	relative viability (KN-93 + Lapatinib; first compound 2.53 µM)	relative viability (KN-93 + Lapatinib; first compound 8 µM)
HCC-78	0.699	0.833	0.778	0.375	0.708	0.68	0.808	0.711	0.336	0.459	0.373	0.344	0.564	0.475	0.579	0.525	0.881	0.703	1.02	0.21
HCC-366		1.35	1.1	0.907	0.258	0.305	0.336	0.162	0.513	0.562	0.737	0.223	0.909	1.02	0.796	0.379		1.24	1.7	0.83
HCC-827	1.04	0.986	0.98	0.872	0.539	0.546	0.491	0.426	0.279	0.302	0.233	0.275	1.05	1.09	0.931	0.577	0.218	0.204	0.197	0.194
HOP-62	1.01	0.897	1.38	0.904	0.358	0.378	0.375	0.276	0.52	0.669	0.675	0.501	1.2	1.22	1.26	0.958	0.94	1.23	0.985	1
LC-2-ad	0.425	0.414	0.364	0.129	0.794	0.989	0.88	0.75	0.74	0.571	0.523	0.329	0.992	1.01	0.915	0.699	0.952	1.21	0.997	0.673
LCLC-97TM1	0.287		0.527	0.238	0.185	0.181	0.163	0.153	0.753	0.955	0.814	0.63	0.955	0.978	0.895	0.74	1.06		1.12	0.425
LK-2	0.743	0.677	1.12	0.567	0.715	0.867	0.929	0.78	0.248	0.315	0.288	0.417	1.16	1.58	1.48	1.15	0.972	1.26	1.02	0.862
LOU-NH91	0.621	0.63	0.709	0.545	0.789	0.677	0.822	0.716	0.504	0.532	0.604	0.458	0.963	0.886	1.01	0.885	0.761	0.575	0.886	0.692
